# Assay results reported in PubChem BioAssay AID328 (DTP/NCI, 2004).
# Values joined by “and” are separate entries in the source; they are usually repeats but may differ in a detail not shown here. Identical values can stand only once. Toxic doses and inconclusive results are not listed.
# System: BDF1 mice, P388 leukemia ip, median survival T/C
# Assay: NCI In Vivo Anticancer Drug Screen. Data for tumor model P388 Leukemia (intraperitoneal) in B6D2F1 (BDF1) mice
# Details: endpoint: median survival time, higher = longer survival
# Summary of the method: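 Steps: implant the tumour, treat one group with compound and another with vehicle, record survival, then divide treated by control.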
# [1] = dose: 50.0 mg/kg/injection, schedule: Q01DX009 (ip), vehicle: saline with Tween-80
# [2] = dose: 100.0 mg/kg/injection, schedule: Q01DX009 (ip), vehicle: saline with Tween-80
# [3] = dose: 100.0 mg/kg/injection, schedule: Q04DX003 (ip), vehicle: saline with Tween-80
# [4] = dose: 200.0 mg/kg/injection, schedule: Q01DX009 (ip), vehicle: saline with Tween-80
# [5] = dose: 200.0 mg/kg/injection, schedule: Q04DX003 (ip), vehicle: saline with Tween-80
# [6] = dose: 400.0 mg/kg/injection, schedule: Q04DX003 (ip), vehicle: saline with Tween-80
# [7] = dose: 100.0 mg/kg/injection, schedule: Q01DX009 (ip), vehicle: saline
# [8] = dose: 200.0 mg/kg/injection, schedule: Q01DX009 (ip), vehicle: saline
# [9] = dose: 400.0 mg/kg/injection, schedule: Q01DX009 (ip), vehicle: saline
# [10] = dose: 6.25 mg/kg/injection, schedule: Q01DX009 (ip), vehicle: saline
# [11] = dose: 12.5 mg/kg/injection, schedule: Q01DX009 (ip), vehicle: saline
# [12] = dose: 25.0 mg/kg/injection, schedule: Q01DX009 (ip), vehicle: saline
# [13] = dose: 50.0 mg/kg/injection, schedule: Q01DX009 (ip), vehicle: saline
# [14] = dose: 100.0 mg/kg/injection, schedule: Q04DX003 (ip), vehicle: saline
# [15] = dose: 200.0 mg/kg/injection, schedule: Q04DX003 (ip), vehicle: saline
# [16] = dose: 400.0 mg/kg/injection, schedule: Q04DX003 (ip), vehicle: saline
# [17] = dose: 50.0 mg/kg/injection, schedule: Q04DX003 (ip), vehicle: saline
smiles,measurement,setting,value
CC(C)CC1NC(=O)C(Cc2ccc(OCc3ccccc3)cc2)NC1=O (stereo not given),T/C,"dose: 40.0 mg/kg/injection, schedule: Q04DX003 (ip), vehicle: saline with Tween-80",95 % of control
same,T/C,[1],101 % of control
same,T/C,"dose: 66.0 mg/kg/injection, schedule: Q04DX003 (ip), vehicle: saline with Tween-80",91 % of control
same,T/C,[2],95 % of control
same,T/C,[3],87 % of control
same,T/C,"dose: 166.0 mg/kg/injection, schedule: Q04DX003 (ip), vehicle: saline with Tween-80",95 % of control
same,T/C,[4],93 % of control
same,T/C,[5],111 % of control
same,T/C,"dose: 276.0 mg/kg/injection, schedule: Q04DX003 (ip), vehicle: saline with Tween-80",91 % of control
same,T/C,"dose: 400.0 mg/kg/injection, schedule: Q01DX009 (ip), vehicle: saline with Tween-80",96 % of control
same,T/C,[6],111 % of control
CS(=O)(=O)C(=Cc1ccccc1Cl)S(C)(=O)=O,T/C,[7],104 % of control
same,T/C,[8],118 % of control
same,T/C,[9],121 % of control
CC(=O)OC1CCC2(C)C(=CCC3C2CCC2(C)C(OC(=O)c4ccccc4)CCC32)C1 (stereo not given),T/C,"dose: 100.0 mg/kg/injection, schedule: Q01DX001 (ip), vehicle: Klucel (hydroxypropylcellulose) (HPC)",100 % of control
same,T/C,[7],110 % of control
same,T/C,"dose: 100.0 mg/kg/injection, schedule: Q04DX003 (ip), vehicle: Klucel (hydroxypropylcellulose) (HPC)",120 % of control
same,T/C,"dose: 200.0 mg/kg/injection, schedule: Q01DX001 (ip), vehicle: Klucel (hydroxypropylcellulose) (HPC)",100 % of control
same,T/C,[8],95 % of control
same,T/C,"dose: 200.0 mg/kg/injection, schedule: Q04DX003 (ip), vehicle: Klucel (hydroxypropylcellulose) (HPC)",105 % of control
same,T/C,"dose: 400.0 mg/kg/injection, schedule: Q01DX001 (ip), vehicle: Klucel (hydroxypropylcellulose) (HPC)",100 % of control
same,T/C,[9],105 % of control
same,T/C,"dose: 400.0 mg/kg/injection, schedule: Q04DX003 (ip), vehicle: Klucel (hydroxypropylcellulose) (HPC)",110 % of control
COC1C(=O)CCC2(CO2)C1(O)C1(C)OC1CCC(C)C (stereo not given),T/C,"dose: 22.0 mg/kg/injection, schedule: Q01DX009 (ip), vehicle: saline with Tween-80",109 % of control
same,T/C,"dose: 44.0 mg/kg/injection, schedule: Q01DX009 (ip), vehicle: saline with Tween-80",109 % of control
same,T/C,"dose: 87.5 mg/kg/injection, schedule: Q01DX009 (ip), vehicle: saline with Tween-80",110 % of control and 118 % of control
COc1cc2c(cc1OC)C1=C(CC2)C2CCCN2CC1 (stereo not given),T/C,[10],95 % of control
same,T/C,[11],105 % of control
same,T/C,[12],95 % of control
CCOC(=O)CN(C)C#N,T/C,[13],110 % of control
same,T/C,"dose: 87.5 mg/kg/injection, schedule: Q01DX009 (ip), vehicle: saline",109 % of control
same,T/C,[7],105 % of control
same,T/C,[14],104 % of control
same,T/C,"dose: 175.0 mg/kg/injection, schedule: Q01DX009 (ip), vehicle: saline",104 % of control
same,T/C,[15],104 % of control
same,T/C,"dose: 265.0 mg/kg/injection, schedule: Q01DX009 (ip), vehicle: saline",109 % of control
same,T/C,[9],95 % of control
same,T/C,[16],104 % of control
CCCCCCCCO/N=C\c1c2c(O)c3c(O)c(C)c4c(c3c1O)C(=O)C(C)(O/C=C\C(OC)C(C)C(OC(C)=O)C(C)C(O)C(C)C(O)C(C)/C=C\C=C(\C)C(=O)N2)O4 (stereo not given),T/C,"dose: 100.0 mg/kg/injection, schedule: Q01DX009 (ip), vehicle: Klucel (hydroxypropylcellulose) (HPC)",100 % of control
same,T/C,"dose: 200.0 mg/kg/injection, schedule: Q01DX009 (ip), vehicle: Klucel (hydroxypropylcellulose) (HPC)",100 % of control
CC1(c2cccs2)NC(=O)NC1=O (stereo not given),T/C,"dose: 25.0 mg/kg/injection, schedule: Q01DX009 (ip), vehicle: saline with Tween-80",104 % of control
same,T/C,[1],96 % of control and 124 % of control
same,T/C,[2],112 % of control and 111 % of control
same,T/C,[3],100 % of control
same,T/C,[4],101 % of control
same,T/C,[5],104 % of control and 98 % of control
same,T/C,[6],100 % of control and 90 % of control
O=C(O)c1ccc(COc2ccc([N+](=O)[O-])cc2Cl)cc1,T/C,[1],91 % of control
same,T/C,[2],100 % of control
same,T/C,[4],100 % of control
CCCCOCN1COCC1(C)C,T/C,[17],100 % of control
same,T/C,[14],105 % of control
CCCCNCCC(SSSC(CCNCCCC)c1ccc(Cl)cc1)c1ccc(Cl)cc1 (stereo not given),T/C,"dose: 6.25 mg/kg/injection, schedule: Q04DX003 (ip), vehicle: saline with Tween-80",104 % of control
same,T/C,"dose: 12.5 mg/kg/injection, schedule: Q04DX003 (ip), vehicle: saline with Tween-80",100 % of control
same,T/C,"dose: 25.0 mg/kg/injection, schedule: Q04DX003 (ip), vehicle: saline with Tween-80",109 % of control
CC(=O)Oc1cc(OC(C)=O)c2c(ccc3ccccc32)c1,T/C,[3],93 % of control
same,T/C,[5],97 % of control
same,T/C,[6],93 % of control
O=C(Nc1ccccc1)OCCBr,T/C,[1],99 % of control
same,T/C,[2],107 % of control
same,T/C,[4],107 % of control
Cc1c2oc3c(C)ccc(C(=O)NC(C)Cc4ccccc4)c3nc-2c(C(=O)NC(C)Cc2ccccc2)c(N)c1=O (stereo not given),T/C,"dose: 100.0 mg/kg/injection, schedule: Q04DX002 (ip), vehicle: DMSO",87 % of control
same,T/C,"dose: 200.0 mg/kg/injection, schedule: Q04DX002 (ip), vehicle: DMSO",92 % of control
CCOC(=O)C1CC[N+](=c2cc(-c3ccc(Cl)cc3)ss2)CC1 (stereo not given),T/C,[13],101 % of control
same,T/C,[17],106 % of control
same,T/C,[7],99 % of control
same,T/C,[14],116 % of control
same,T/C,[15],116 % of control
same,T/C,[16],116 % of control
CCOC(=O)CCN1CCCCCC1,T/C,[12],91 % of control
same,T/C,[13],120 % of control
same,T/C,[7],95 % of control
same,T/C,[14],100 % of control
same,T/C,[8],92 % of control
same,T/C,[15],100 % of control
same,T/C,[16],118 % of control
C[N+]1(C2CCC3CCC2C3O)CCCCC1 (stereo not given),T/C,[14],90 % of control
same,T/C,[15],122 % of control
CN1CCC(C(c2ccccc2)c2ccccc2)C1 (stereo not given),T/C,"dose: 50.0 mg/kg/injection, schedule: Q01DX009 (ip), vehicle: Klucel (hydroxypropylcellulose) (HPC)",109 % of control
c1cc2c3c(c1)/C(=N\N=C1/CCN4CCCc5cccc1c54)CCN3CCC2,T/C,[1],104 % of control
same,T/C,"dose: 50.0 mg/kg/injection, schedule: Q04DX003 (ip), vehicle: saline with Tween-80",90 % of control
same,T/C,[2],104 % of control
same,T/C,[3],100 % of control
same,T/C,[4],104 % of control
same,T/C,[5],100 % of control
Cc1cc(C(C)(C)CC(C)(C)C)cc(O)c1O,T/C,"dose: 100.0 mg/kg/injection, schedule: Q04DX003 (ip), vehicle: other",113 % of control
same,T/C,"dose: 200.0 mg/kg/injection, schedule: Q04DX003 (ip), vehicle: other",109 % of control
same,T/C,"dose: 400.0 mg/kg/injection, schedule: Q04DX003 (ip), vehicle: other",100 % of control
O=C1NC2(CCCCC2)C(=O)N1CCN(CCCl)CCCl,T/C,"dose: 0.39 mg/kg/injection, schedule: Q01DX009 (ip), vehicle: saline",196 % of control
same,T/C,"dose: 0.78 mg/kg/injection, schedule: Q01DX009 (ip), vehicle: saline",189 % of control
same,T/C,"dose: 1.56 mg/kg/injection, schedule: Q01DX009 (ip), vehicle: saline",222 % of control
same,T/C,"dose: 3.12 mg/kg/injection, schedule: Q01DX009 (ip), vehicle: saline",291 % of control
same,T/C,[10],291 % of control
same,T/C,[11],120 % of control
C=C(C)C(=O)O[C@H]1[C@H]2[C@H](OC(=O)[C@H]2C)[C@H](O)[C@@H](C)[C@@H]2C=CC(=O)[C@]21C,T/C,"dose: 3.13 mg/kg/injection, schedule: Q01DX009 (ip), vehicle: saline",102 % of control
same,T/C,[10],110 % of control
same,T/C,[12],161 % of control
COC(=O)[C@@H](C)[C@@H](O)[C@@H](C)N,T/C,[3],101 % of control
same,T/C,[5],99 % of control
same,T/C,[6],103 % of control
